According to patent US9562035B2, “Benzamide derivative useful as FASN inhibitors for the treatment of cancer” (Janssen Pharmaceutica NV, priority 2013, dated 2017):

Experiments:
A2780 ovarian cells [1] = test: A2780 Ovarian Cell Proliferation Assay in Lipid Reduced Medium, with Palmitate (control); format: cell-based; conditions: Homo sapiens, A2780; lipid reduced medium, 25 μM palmitate, 96 h, MTT; read-out: Proliferation A2780 with Palmitate pIC50 (converted)
Method in brief: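 A2780 cells were seeded in RPMI1640 with 10% FCS, then switched next day to medium with 10% lipid-reduced serum. Compound was added with final 25 μM palmitate, 0.2% fatty-acid-free BSA and 0.2% DMSO, and incubated 96 h at 37 °C. Read-out was MTT absorbance at 544 nm; pIC50 = −log(IC50) from curve fit.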

[2] = target: T1, hFASN enzyme (full length) (Homo sapiens, UniProt P49327); test: Fatty Acid Synthase (FASN) Inhibition Scintillation Proximity Assay; format: biochemical; conditions: for IC50: mean where tested more than once, ~ = standard error of pIC50 larger than 0.5; for inhibition at 10 µM: read-out: FASN % Effect @1E−05M
T1 construct: 10 μL hFASN enzyme (full length, 300 ng, purified in house); made in house
Method in brief: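 Purified full-length human FASN (300 ng) incubated 60 min at room temperature with NADPH, [3H]-acetyl-CoA and malonyl-CoA in 100 mM KH2PO4 pH 7.5, 1 mM DTT; compound at 30 μM to 0.01 μM. [3H]-palmitate captured by SPA imaging beads; IC50 from 4-parameter fit, reported as pIC50.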

[3] = target: T2, FASN Keto-reductase Domain (Homo sapiens, UniProt P49327); test: Fatty Acid Synthase Keto-Reductase Domain (FASN KR) Inhibition; format: biochemical; conditions: mean where tested more than once; read-out: FASN K-R Domain pIC50 (converted)
T2 construct: 10 μL hFASN enzyme (full length, 300 ng, purified in house) and 360 μM NADPH; made in house
Method in brief: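 Full-length human FASN (300 ng) in 100 mM KH2PO4 pH 7.5 with 360 μM NADPH and 180 mM ethyl acetoacetate (stock); A340 decrease read over 20 min at room temperature.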

A2780 ovarian cells [4] = test: A2780 Ovarian Cell Proliferation Assay in Lipid Reduced Medium, without Palmitate; format: cell-based; conditions: Homo sapiens, A2780; lipid reduced medium, without palmitate, 96 h, MTT; read-out: Proliferation A2780 w/o Palmitate pIC50 (converted)
Method in brief: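 A2780 cells were seeded in 10% FCS medium and switched next day to 10% lipid-reduced serum without palmitate. Compounds at 0.01–30 μM were added with 0.2% DMSO, 0.2% fatty-acid-free BSA and 0.25% ethanol final. After 96 h, MTT absorbance at 544 nm was normalized to plate controls, and IC50/pIC50 came from a 4-parameter logistic fit.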

T2 sequence (P49327 whole entry, the tested form may be a part): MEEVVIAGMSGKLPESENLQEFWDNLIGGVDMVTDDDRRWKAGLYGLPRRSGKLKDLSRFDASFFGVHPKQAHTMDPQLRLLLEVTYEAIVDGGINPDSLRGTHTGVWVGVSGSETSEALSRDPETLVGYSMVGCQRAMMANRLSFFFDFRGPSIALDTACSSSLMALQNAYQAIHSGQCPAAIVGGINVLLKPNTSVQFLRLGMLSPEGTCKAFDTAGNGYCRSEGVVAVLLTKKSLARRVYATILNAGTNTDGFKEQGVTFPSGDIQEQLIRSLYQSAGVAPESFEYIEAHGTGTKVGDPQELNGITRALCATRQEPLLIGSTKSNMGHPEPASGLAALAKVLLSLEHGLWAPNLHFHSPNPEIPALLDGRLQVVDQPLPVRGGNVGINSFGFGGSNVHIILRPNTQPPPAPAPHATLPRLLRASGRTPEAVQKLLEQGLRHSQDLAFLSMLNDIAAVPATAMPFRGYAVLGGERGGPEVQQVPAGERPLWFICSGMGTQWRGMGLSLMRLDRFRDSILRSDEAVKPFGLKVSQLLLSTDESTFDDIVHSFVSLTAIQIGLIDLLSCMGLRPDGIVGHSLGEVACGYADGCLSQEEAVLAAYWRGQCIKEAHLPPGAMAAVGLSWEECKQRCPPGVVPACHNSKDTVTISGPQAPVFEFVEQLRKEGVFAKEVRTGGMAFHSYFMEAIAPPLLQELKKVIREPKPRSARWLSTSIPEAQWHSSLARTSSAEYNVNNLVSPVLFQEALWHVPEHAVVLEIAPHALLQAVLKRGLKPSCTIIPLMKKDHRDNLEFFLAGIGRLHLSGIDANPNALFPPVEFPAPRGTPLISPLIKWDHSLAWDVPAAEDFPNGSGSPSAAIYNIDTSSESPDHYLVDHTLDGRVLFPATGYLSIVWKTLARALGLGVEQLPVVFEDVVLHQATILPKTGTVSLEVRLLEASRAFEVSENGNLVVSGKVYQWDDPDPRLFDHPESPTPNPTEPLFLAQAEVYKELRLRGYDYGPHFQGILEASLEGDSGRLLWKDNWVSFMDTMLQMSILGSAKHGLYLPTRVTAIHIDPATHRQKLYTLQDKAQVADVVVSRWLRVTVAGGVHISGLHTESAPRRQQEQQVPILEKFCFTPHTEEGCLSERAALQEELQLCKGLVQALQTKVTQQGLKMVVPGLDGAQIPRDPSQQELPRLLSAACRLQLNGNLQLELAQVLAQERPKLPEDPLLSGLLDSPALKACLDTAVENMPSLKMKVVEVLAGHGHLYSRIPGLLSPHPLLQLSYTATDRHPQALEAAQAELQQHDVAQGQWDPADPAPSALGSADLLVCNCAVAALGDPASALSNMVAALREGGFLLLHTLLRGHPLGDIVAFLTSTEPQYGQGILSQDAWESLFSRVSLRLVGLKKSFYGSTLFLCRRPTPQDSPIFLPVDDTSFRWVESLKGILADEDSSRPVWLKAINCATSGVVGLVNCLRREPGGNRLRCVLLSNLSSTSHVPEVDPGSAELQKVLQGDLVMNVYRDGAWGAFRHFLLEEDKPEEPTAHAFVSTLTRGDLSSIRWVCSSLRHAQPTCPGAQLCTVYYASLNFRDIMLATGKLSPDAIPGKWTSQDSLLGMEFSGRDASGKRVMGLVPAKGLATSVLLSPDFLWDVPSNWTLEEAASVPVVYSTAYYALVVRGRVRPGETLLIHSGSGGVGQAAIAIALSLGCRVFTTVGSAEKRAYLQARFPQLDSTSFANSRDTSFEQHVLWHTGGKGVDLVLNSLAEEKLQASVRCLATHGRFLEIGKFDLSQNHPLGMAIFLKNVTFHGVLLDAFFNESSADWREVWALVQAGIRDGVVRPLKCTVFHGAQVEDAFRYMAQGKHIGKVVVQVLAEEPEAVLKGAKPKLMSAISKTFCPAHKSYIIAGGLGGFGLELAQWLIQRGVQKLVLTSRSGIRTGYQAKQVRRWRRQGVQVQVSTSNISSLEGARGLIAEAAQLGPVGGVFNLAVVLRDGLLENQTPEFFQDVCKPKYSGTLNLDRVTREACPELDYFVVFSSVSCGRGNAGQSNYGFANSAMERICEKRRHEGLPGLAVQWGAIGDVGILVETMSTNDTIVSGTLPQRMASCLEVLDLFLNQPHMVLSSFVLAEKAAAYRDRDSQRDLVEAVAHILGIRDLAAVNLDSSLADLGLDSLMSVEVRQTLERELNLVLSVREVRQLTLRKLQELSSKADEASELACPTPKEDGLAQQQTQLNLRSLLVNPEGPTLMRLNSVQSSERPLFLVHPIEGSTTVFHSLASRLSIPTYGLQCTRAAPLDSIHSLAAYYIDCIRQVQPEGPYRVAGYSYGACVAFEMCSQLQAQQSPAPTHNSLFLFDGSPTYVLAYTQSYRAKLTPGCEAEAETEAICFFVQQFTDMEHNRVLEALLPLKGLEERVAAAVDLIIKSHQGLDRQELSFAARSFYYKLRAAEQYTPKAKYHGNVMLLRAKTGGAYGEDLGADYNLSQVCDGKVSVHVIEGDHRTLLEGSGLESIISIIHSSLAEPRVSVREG
T1 sequence (P49327 whole entry): as the sequence (P49327 whole entry, the tested form may be a part) above

Row | IC50 (A2780 ovarian cells [1]) [nM] | IC50 [2] [nM] | inhibition at 10 µM [2] [%] | IC50 [3] [nM] | IC50 (A2780 ovarian cells [4]) [nM] | Structure (SMILES)
1 | > 10000 | 17.4 | 100 | 29.5 | 95.5 | COc1ccc(C(=O)Nc2cc(C(=O)N3CCC(c4ccc(-c5cnn(C)c5)cc4)CC3)ccc2C)cc1 [Compound 93, 4-methoxy-N-(2-methyl-5-(4-(4-(1-methyl-1H-pyrazol-4-yl)phenyl)piperidine-1-carbonyl)phenyl)benzamide]
2 | 7590 | 20.4 | 100 | 83.2 | 148 | COc1cccc(C(=O)Nc2cc(C(=O)N3CCC(c4ccc(-c5cnn(C)c5)cc4)CC3)ccc2C)c1 [Compound 94, 3-methoxy-N-(2-methyl-5-(4-(4-(1-methyl-1H-pyrazol-4-yl)phenyl)piperidine-1-carbonyl)phenyl)benzamide]
3 | 3470 | 26.3 | 105 | 151 | 263 | Cc1ccc(C(=O)N2CCC(c3ccc(-c4cnn(C)c4)cc3)CC2)cc1NC(=O)c1cccc(Cl)c1 [Compound 95, 3-chloro-N-(2-methyl-5-(4-(4-(1-methyl-1H-pyrazol-4-yl)phenyl)piperidine-1-carbonyl)phenyl)benzamide]
4 | > 10000 | 31.6 | 103 | 155 | 145 | Cc1ccc(C(=O)N2CCC(c3ccc(-c4cnn(C)c4)cc3)CC2)cc1NC(=O)c1ccccc1Cl [Compound 96, 2-chloro-N-(2-methyl-5-(4-(4-(1-methyl-1H-pyrazol-4-yl)phenyl)piperidine-1-carbonyl)phenyl)benzamide]
5 | 6030 | 170 | 89 | 324 | 501 | Cc1ccc(C(=O)N2CC(c3ccc(-c4cnn(C)c4)cc3)C2)cc1NC(=O)c1cccc(C(F)(F)F)n1 [Compound 97, N-(2-methyl-5-(3-(4-(1-methyl-1H-pyrazol-4-yl)phenyl)azetidine-1-carbonyl)phenyl)-6-(trifluoromethyl)picolinamide]
6 | 1200 | 30.2 | 102 | 91.2 | 46.8 | Cc1cc(C(=O)Nc2cc(C(=O)N3CCC(c4ccc(-c5cnn(C)c5)cc4)CC3)ccc2C)ccn1 [Compound 98, 2-methyl-N-(2-methyl-5-(4-(4-(1-methyl-1H-pyrazol-4-yl)phenyl)piperidine-1-carbonyl)phenyl)isonicotinamide]
7 | 6310 | 107 | 92 | 295 | 389 | Cc1ccc(C(=O)N2CCC(c3ccc(-c4cnn(C)c4)cc3)CC2)cc1NC(=O)c1sccc1Cl [Compound 99, 3-chloro-N-(2-methyl-5-(4-(4-(1-methyl-1H-pyrazol-4-yl)phenyl)piperidine-1-carbonyl)phenyl)thiophene-2-carboxamide]
8 | > 10000 | 47.9 | 105 | 155 | 91.2 | Cc1ccc(C(=O)N2CCC(c3ccc(-c4cnn(C)c4)cc3)CC2)cc1NC(=O)c1cccnc1Cl [Compound 101, 2-Chloro-N-(2-methyl-5-(4-(4-(1-methyl-1H-pyrazol-4-yl)phenyl)piperidine-1-carbonyl)phenyl)nicotinamide]
9 | > 10000 | 18.6 | 105 | 38 | 36.3 | Cc1ccc(C(=O)N2CCC(c3ccc(-c4cnn(C)c4)cc3)CC2)cc1NC(=O)c1ccc(Cl)nc1 [Compound 102, 6-Chloro-N-(2-methyl-5-(4-(4-(1-methyl-1H-pyrazol-4-yl)phenyl)piperidine-1-carbonyl)phenyl)nicotinamide]
10 | 4570 | 75.9 | 95 | 148 | 141 | COc1cc(C(=O)Nc2cc(C(=O)N3CCC(c4ccc(-c5cnn(C)c5)cc4)CC3)ccc2C)cc(Cl)n1 [Compound 103, 2-Chloro-6-methoxy-N-(2-methyl-5-(4-(4-(1-methyl-1H-pyrazol-4-yl)phenyl)piperidine-1-carbonyl)phenyl)isonicotinamide]
11 | > 10000 | 42.7 | 104 | 87.1 | 70.8 | Cc1ccc(C(=O)N2CCC(c3ccc(-c4cnn(C)c4)cc3)CC2)cc1NC(=O)C1CCOCC1 [Compound 104, N-(2-methyl-5-(4-(4-(1-methyl-1H-pyrazol-4-yl)phenyl)piperidine-1-carbonyl)phenyl)tetrahydro-2H-pyran-4-carboxamide]
12 | 3020 | 309 | 86 | 617 | 955 | COc1ccccc1C(=O)Nc1cc(C(=O)N2CCC(c3ccc(-c4cnn(C)c4)cc3)CC2)ccc1C [Compound 105, 2-methoxy-N-(2-methyl-5-(4-(4-(1-methyl-1H-pyrazol-4-yl)phenyl)piperidine-1-carbonyl)phenyl)benzamide]
13 | > 15100 | 10.7 | 113 | 24.5 | 79.4 | Cc1ccc(C(=O)N2CC(c3ccc(-c4cnn(C)c4)cc3)C2)cc1NC(=O)c1ccc(N2CCCC2)nc1 [Compound 106, N-(2-methyl-5-(3-(4-(1-methyl-1H-pyrazol-4-yl)phenyl)azetidine-1-carbonyl)phenyl)-6-(pyrrolidin-1-yl)nicotinamide]
14 | ~407 | 36.3 | 103 | 60.3 | 93.3 | CC(C)Nc1ccc(C(=O)Nc2cc(C(=O)N3CC(c4ccc(-c5ccnn5C)cc4)C3)ccc2Cl)cn1 [Compound 108, N-(2-chloro-5-(3-(4-(1-methyl-1H-pyrazol-5-yl)phenyl)azetidine-1-carbonyl)phenyl)-6-(isopropylamino)nicotinamide]
15 | > 15100 | 14.5 | 119 | 31.6 | ~23.4 | Cc1ccc(C(=O)N2CC(c3ccc(-c4cnn(C)c4)cc3)C2)cc1NC(=O)c1ccc(NC2CCC2)nc1 [Compound 109, 6-(cyclobutylamino)-N-(2-methyl-5-(3-(4-(1-methyl-1H-pyrazol-4-yl)phenyl)azetidine-1-carbonyl)phenyl)nicotinamide]
16 | > 10000 | 28.8 | 104 | 47.9 | 67.6 | COc1ccc(C(=O)Nc2cc(C(=O)N3CCC(c4ccc(-c5cnn(C)c5)cc4)CC3)ccc2C)cn1 [Compound 113, 6-methoxy-N-(2-methyl-5-(4-(4-(1-methyl-1H-pyrazol-4-yl)phenyl)piperidine-1-carbonyl)phenyl)nicotinamide]
17 | > 10000 | 316 | 92 | 631 | 537 | Cc1ccc(C(=O)N2CCC(c3ccc(-c4cnn(C)c4)cc3)CC2)cc1NC(=O)c1cnccc1Cl [Compound 114, 4-chloro-N-(2-methyl-5-(4-(4-(1-methyl-1H-pyrazol-4-yl)phenyl)piperidine-1-carbonyl)phenyl)nicotinamide]
18 | > 10000 | 43.7 | 101 | 93.3 | 126 | Cc1ccc(C(=O)N2CCC(c3ccc(-c4cnn(C)c4)cc3)CC2)cc1NC(=O)c1ccc(F)cc1 [Compound 116, 4-fluoro-N-(2-methyl-5-(4-(4-(1-methyl-1H-pyrazol-4-yl)phenyl)piperidine-1-carbonyl)phenyl)benzamide]
